In patent publication US6110963A, “Aryl-oxo-acetic acids useful in the treatment of insulin resistance and hyperglycemia” (American Home Products Corporation, priority 1999, dated 2000):
Read-outs that look alike come from different tables or passages of the source.

Key:
[1] = molecular target: T1, Human recombinant PTP1B (hPTP1B) (Homo sapiens, UniProt P18031); assay type: biochemical; conditions: for IC50: recombinant PTP1B, malachite green phosphate detection; for inhibition at 2.5 µM: read-out: change of PTP1B activity (percent of phosphatase control) at single concentration
T1 construct: made in house
T1 sequence (P18031 1-435): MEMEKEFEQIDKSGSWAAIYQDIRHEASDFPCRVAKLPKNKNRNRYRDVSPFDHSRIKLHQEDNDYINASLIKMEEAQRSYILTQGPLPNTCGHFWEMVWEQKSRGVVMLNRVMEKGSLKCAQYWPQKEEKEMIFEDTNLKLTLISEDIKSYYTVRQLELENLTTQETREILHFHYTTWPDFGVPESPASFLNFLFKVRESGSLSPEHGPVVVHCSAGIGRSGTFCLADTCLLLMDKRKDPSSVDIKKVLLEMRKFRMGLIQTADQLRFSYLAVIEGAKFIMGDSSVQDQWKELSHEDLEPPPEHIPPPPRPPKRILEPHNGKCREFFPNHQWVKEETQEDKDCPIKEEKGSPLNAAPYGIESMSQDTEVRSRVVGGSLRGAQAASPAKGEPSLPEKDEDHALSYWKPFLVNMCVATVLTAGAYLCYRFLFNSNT

[2] = test system: rat hepatic microsomal PTPases; conditions: PTPase activity, compound at 50 μM, rat liver microsomes
diabetic (ob/ob) mice = assay: Blood glucose lowering activity in diabetic (ob/ob) mice; assay type: in vivo, mouse; conditions: 100 mg/Kg; for % Change Glucose from Vehicle: plasma glucose
From the text: The procedures used and results obtained are briefly described below.
The non-insulin dependent diabetic (NIDDM) syndrome can be typically characterizes by obesity, hyperglycemia, abnormal insulin secretion, hyperinsulinemia and insulin resistance.
In each test procedure, mice [Male or female ob/ob (C57 B1/6J) and their lean litermates (ob/+ or +/+, Jackson Laboratories) ages 2 to 5 months (10 to 65 g)] of a similar age were randomized according to body weight into 4 groups of 10 mice. The mice were housed 5 per cage and are maintained on normal rodent chow with water ad libitum. Mice received test compound daily by gavage (suspended in 0.5 ml of 0.5% methyl cellulose); dissolved in the drinking water; or admixed in the diet. The dose of compounds given ranges from 2.5 to 200 mg/kg body weight/day. The dose is calculated based on the fed weekly body weight and is expressed as active moiety. […] Control mice received vehicle only.
On the morning of Day 4, 7 or 14 two drops of blood (approximetly 50 ul) were collected into sodium fluoride containing tubes either from the tail vein or after decapitation. For those studies in which the compound was administered daily by gavage the blood samples were collected two hours after compound administration. The plasma was isolated by centrifugation and the concentration of glucose is measured enzymatically on an Abbott V. P. Analyzer.
For each mouse, the percentage change in plasma glucose on Day 4, 7 or 14 is calculated relative to the mean plasma glucose of the vehicle treated mice. Analysis of variance followed by Dunett's Comparison Test (one-tailed) are used to estimate the significant difference between the plasma glucose values from the control group and the individual compound treated groups (CMS SAS Release 5.18).

| SMILES | IC50 [1] [µM] | % Change from Control [2] [%] | other results |
| --- | --- | --- | --- |
| CCCCc1oc2ccccc2c1C(O)c1ccc(-c2ccc(O)cc2)cc1 (stereo not shown) [Example 14, 4'-[(2-Butyl-benzofuran-3-yl)-hydroxy-methyl]-biphenyl-4-ol] | 0.23 |  |  |
| CCCCc1oc2ccccc2c1Cc1ccc2c(Br)c(OCc3nnn[nH]3)ccc2c1 [Example 6, 5-[1-Bromo-6-(2-butyl-benzofuran-3-ylmethyl)-naphthalen-2-yloxymethyl]-1H-tetrazole] | 0.7 | -62 |  |
| CCCCc1oc2cc(Br)ccc2c1Cc1nc(Br)c(-c2ccc(OC)cc2)o1 [Example 26] | 1.24 |  |  |
| CCCCc1oc2ccccc2c1C(O)c1ccc(-c2ccc(OCC(=O)O)cc2)cc1 (stereo not shown) [Example 19, {4'-[(2-Butyl-benzofuran-3-yl)-hydroxy-methyl]-biphenyl-4-yloxy}-acetic acid] | 0.54 | -24 |  |
| CCCCc1oc2ccccc2c1C(=O)c1ccc2c(Br)c(OCC(=O)O)ccc2c1 [Example 10, [1-Bromo-6-(2-butyl-benzofuran-3-carbonyl)-naphthalen-2-yloxy]-acetic acid] |  | -69 | inhibition at 2.5 µM ([1]; compound at 2.5 uM): 46% |
| CCCCc1oc2ccccc2c1C(Sc1nc2ccccc2s1)c1ccccc1 (stereo not shown) [Example 32] | 1 |  |  |
| CCCCc1oc2ccccc2c1C(O)c1ncc(-c2ccc(OC)cc2)o1 (stereo not shown) [Example 22, (2-Butyl-benzofuran-3-yl)-[5-(4-methoxy-phenyl)-oxazole-2-yl]-methanol] |  | -38 |  |
| CCCCc1oc2ccccc2c1C(Sc1nc2ccccc2s1)c1ccc(Br)c2ccccc12 (stereo not shown) [Example 31, 2-[(4-Bromo-naphthalen-1-yl)-(2-butyl-benzofuran-3-yl)-methylsulfanyl]-benzothiazole] | 0.59 |  |  |
| CCCCc1oc2ccccc2c1C(=O)c1nc(Br)c(-c2ccc(OC)cc2)o1 [Example 25, [4-Bromo-5-(4-methoxy-phenyl)-oxazol-2-yl]-(2-butyl-benzofuran-3-yl)-methanone] | 1.36 |  |  |
| CCCCc1oc2ccccc2c1Cc1ccc2c(Br)c(O)ccc2c1 [Example 3, 1-Bromo-6-(2-butyl-benzofuran-3-ylmethyl)-naphthalen-2-ol] | 0.33 | -37 |  |
| CCCCc1oc2ccccc2c1C(O)c1ccc2cc(O)ccc2c1 (stereo not shown) [Example 1] | 1.16 | -31 |  |
| CCCCc1oc2ccccc2c1C(O)c1ccc2c(Br)c(O)ccc2c1 (stereo not shown) [Example 9, 1-Bromo-6-[(2-butyl-benzofuran-3-yl)-hydroxy-methyl]-naphthalen-2-ol] | 0.48 |  | % Change Insulin from Vehicle (diabetic (ob/ob) mice): -38% |
| CCCCCCCC(Sc1nc2ccccc2s1)c1cc2ccccc2s1 (stereo not shown) [Example 29, 2-[1-(Benzorblthiophen-2-yl)-octylsulfanyl]-benzothiazole] | 1.86 | -24 |  |
| CCCCc1oc2ccccc2c1C(=O)c1ncc(-c2ccc(OC)cc2)o1 [Example 23, (2-Butyl-benzofuran-3-yl)-[5-(4-methoxy-phenyl)-oxazole-2-yl]-methanone] |  |  | inhibition at 2.5 µM ([1]; compound at 2.5 uM): 55% |
| Oc1ccc(-c2ccc(C(O)c3c(Cc4ccccc4)sc4ccccc34)cc2)cc1 (stereo not shown) [Example 21, 4'-[(2-Benzyl-benzorblthiophen-3-yl)-hydroxy-methyl]-biphenyl-4-ol] |  |  | inhibition at 2.5 µM ([1]; compound at 2.5 uM): 36% |
| CCCCc1oc2ccccc2c1C(=O)c1ccc2c(Br)c(OC(Cc3ccccc3)C(=O)O)ccc2c1 (stereo not shown) [Example 11, 2-[1-Bromo-6-(2-butyl-benzofuran-3-carbonyl)-naphthalen-2-yloxy]-3-phenylpropionic acid] | 1.23 | -77 |  |
| Oc1ccc2cc(Cc3c(Cc4ccccc4)sc4ccccc34)ccc2c1Br [Example 13, 6-(2-Benzyl-benzo[b]thiophen-3-ylmethyl)-1-bromo-naphthalen-2-ol] | 1.04 | -37 |  |

| SMILES | IC50 [1] [µM] | % Change from Control [2] [%] | other results |
| --- | --- | --- | --- |
| CCCCc1oc2ccccc2c1Cc1ccc(-c2ccc(OCc3nnn[nH]3)cc2)cc1 [Example 18] | 0.51 |  |  |
| CCCCc1oc2ccccc2c1Cc1ccc2c(Br)c(OCC(=O)O)ccc2c1 [Example 4, [1-Bromo-6-(2-butyl-benzofuran-3-ylmethyl)-naphthalen-2-yloxy]-acetic acid] | 1.44 | -65 |  |
| CCCCc1oc2ccccc2c1C(=O)c1ccc2c(Br)c(OCc3nnn[nH]3)ccc2c1 [Example 12, [5-bromo-6-(1H-tetrazol-5-ylmethoxy)-naphthalen-2-yl]-(2-butyl-benzofuran-3-yl)methanone] | 1.13 | -70 | % Change Insulin from Vehicle (diabetic (ob/ob) mice): 12%; % Change Glucose from Vehicle (diabetic (ob/ob) mice): -24.8% |
| CCCCc1oc2ccccc2c1Cc1ccc2c(Br)c(OC(Cc3ccccc3)C(=O)O)ccc2c1 (stereo not shown) [Example 5, 2-[1-Bromo-6-(2-butyl-benzofuran-3-ylmethyl)-naphthalen-2-yloxy]-3-phenylpropionic acid] | 0.37 | -59 | % Change Glucose from Vehicle (diabetic (ob/ob) mice): -25.6% |
| CCCCc1oc2ccccc2c1C(Sc1nc2ccccc2s1)c1ccc(Br)cc1 (stereo not shown) [Example 30, 2-[(4-Bromo-phenyl)-(2-butyl-benzofuran-3-yl)-methylsulfanyl]-benzothiazole] | 0.58 |  |  |
| CCCCc1oc2ccccc2c1Cc1ccc(-c2ccc(O)cc2)cc1 [Example 16] | 1.19 | -28 |  |
| CCCCc1oc2ccccc2c1C(O)c1ccc(-c2cc(Br)c(O)c(Br)c2)cc1 (stereo not shown) [Example 20, 3,5-Dibromo-4'-[(2-butyl-benzofuran-3-yl)-hydroxy-methyl]-biphenyl-4-ol] | 1.4 | -22 |  |
| CCCCc1oc2ccccc2c1Cc1ccc(-c2ccc(OCC(=O)O)cc2)cc1 [Example 17] | 1.15 | -76 |  |
| Brc1cc(Cc2ccc3ccccc3c2)cc(Br)c1OCc1nnn[nH]1 [Example 34, 5-[2,6-Dibromo-4-(naphthalen-2-ylmethyl)-phenoxymethyl]-1H-tetrazole] |  |  | % Change Insulin from Vehicle (diabetic (ob/ob) mice): -18%; % Change Glucose from Vehicle (diabetic (ob/ob) mice): -27.8% |
| CCCCc1oc2ccccc2c1C(Sc1nc2ccccc2s1)c1ccc(-c2ccc(O)cc2)cc1 (stereo not shown) [Example 28, 4'-[(2-Butyl-benzofuran-3-yl)-(benzothiazol-2-ylsulfanyl)-methyl]-biphenyl-4-ol] | 1.16 |  |  |
| CCCCc1oc2ccccc2c1Cc1ccc2c(I)c(O)ccc2c1 [Example 7, 6-(2-Butyl-benzofuran-3-ylmethyl)-1-iodo-naphthalen-2-ol] | 0.31 | -24 |  |
| CCCCc1oc2ccccc2c1Cc1ccc2c(I)c(OC(Cc3ccccc3)C(=O)O)ccc2c1 (stereo not shown) [Example 8] | 0.31 | -58 | % Change Insulin from Vehicle (diabetic (ob/ob) mice): -33%; % Change Glucose from Vehicle (diabetic (ob/ob) mice): -11% |
| CCCCc1oc2ccccc2c1Cc1ccc2cc(O)ccc2c1 [Example 2] | 1.35 | -37 |  |
| CCCCc1oc2ccccc2c1C(=O)c1ccc(-c2ccc(O)cc2)cc1 [Example 15, (2-Butyl-benzofuran-3-yl)-(4'-hydroxy-biphenyl-4-yl)-methanone] |  | -20 | inhibition at 2.5 µM [1]: 53% |
| CCCCc1oc2ccccc2c1Cc1ncc(-c2ccc(OC)cc2)o1 [Example 24, 2-(2-Butyl-benzofuran-3-ymethyl)-5-(4-methoxy-phenyl)-oxazole] |  |  | inhibition at 2.5 µM ([1]; compound at 2.5 uM): 35% |
| CCCCc1oc2ccccc2c1C(Sc1nc2ccccc2s1)c1ccc2cc(O)ccc2c1 (stereo not shown) [Example 27] | 1 |  |  |
